Measurements from article PMC6720883, “In Vitro Inhibitory Effects of APINACA on Human Major Cytochrome P450, UDP-Glucuronosyltransferase Enzymes, and Drug Transporters” (Molecules, 2019).
Where two headings read alike, the source gives them in different places.

Key:
Type in all cases: in vitro ADME
UGT1A1 = target: T1, UGT1A1 (Homo sapiens, UniProt P22309); assay: biochemical
T1 construct: […]; tissue Corning Life Sciences
T1 sequence (P22309 26-533): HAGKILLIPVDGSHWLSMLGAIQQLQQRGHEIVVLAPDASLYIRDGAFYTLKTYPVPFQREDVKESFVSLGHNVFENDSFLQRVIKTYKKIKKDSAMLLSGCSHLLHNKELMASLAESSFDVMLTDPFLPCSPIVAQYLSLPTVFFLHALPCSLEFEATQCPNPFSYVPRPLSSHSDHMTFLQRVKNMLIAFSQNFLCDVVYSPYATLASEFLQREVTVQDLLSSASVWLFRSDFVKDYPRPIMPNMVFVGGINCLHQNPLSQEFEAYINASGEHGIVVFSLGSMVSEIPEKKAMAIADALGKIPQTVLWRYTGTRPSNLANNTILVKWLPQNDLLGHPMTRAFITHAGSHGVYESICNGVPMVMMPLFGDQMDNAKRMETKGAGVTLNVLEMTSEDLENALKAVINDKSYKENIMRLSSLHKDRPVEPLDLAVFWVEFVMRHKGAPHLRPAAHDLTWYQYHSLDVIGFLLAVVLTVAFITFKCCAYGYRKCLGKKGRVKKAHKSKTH
Text: (§1) 12.5 (Systat Software, Inc.; San Jose, CA, USA). […] 1.1 (Systat Software, Inc.).

UGT1A9 = target: T2, UGT1A9 (Homo sapiens, UniProt O60656); assay: Inhibition of UGT1A9-catalyzed mycophenolic acid glucuronidation in human liver microsomes; design: […]; tissue Corning Life Sciences; details: IC50 UGT1A9 mycophenolic acid glucuronidation, pooled human liver microsomes
T2 sequence (O60656 26-530): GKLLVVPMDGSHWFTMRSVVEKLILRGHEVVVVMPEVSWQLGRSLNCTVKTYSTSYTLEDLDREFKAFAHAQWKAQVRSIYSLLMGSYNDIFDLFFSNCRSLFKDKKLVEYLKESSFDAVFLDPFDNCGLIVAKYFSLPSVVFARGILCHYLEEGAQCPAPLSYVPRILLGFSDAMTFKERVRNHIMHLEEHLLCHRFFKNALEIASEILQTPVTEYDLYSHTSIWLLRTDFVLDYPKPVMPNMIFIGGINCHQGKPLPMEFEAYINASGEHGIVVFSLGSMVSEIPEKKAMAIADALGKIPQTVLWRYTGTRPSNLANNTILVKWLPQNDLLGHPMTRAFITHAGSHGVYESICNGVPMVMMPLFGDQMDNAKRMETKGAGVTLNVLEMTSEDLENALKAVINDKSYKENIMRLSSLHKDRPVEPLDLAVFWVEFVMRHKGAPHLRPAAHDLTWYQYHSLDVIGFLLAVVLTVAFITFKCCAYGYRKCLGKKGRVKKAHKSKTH
Text: as §1

CYP2C9 = CYP2C9 (Homo sapiens, UniProt P11712); assay: Inhibition of CYP2C9-catalyzed diclofenac 4′-hydroxylase in ultrapooled human liver microsomes; details: CYP2C9 diclofenac 4′-hydroxylase
Protocol: The inhibitory potentials (IC50 values) of APINACA and typical CYP inhibitors on CYP 1A2, 2A6, 2C8, 2C9, 2C19, 2D6, and 3A4 activities in pooled human liver microsomes were evaluated following our previous method using a cocktail of CYP substrates, followed by LC–MS/MS [43]. […]. After 3 min of preincubation at 37 °C, the reaction mixtures were incubated for 15 min at 37 °C with the addition of NADPH in a shaking water bath. The reaction was stopped by adding 100 μL of ice cold methanol containing internal standards (d9-1′-hydroxybufuralol for 1′-hydroxybufuralol, 4′-hydroxydiclofenac, 7-hydroxycoumarin, 1′-hydroxymidazolam, and 4′-hydroxymephenytoin; ^13C2, ^15N-acetaminophen for acetaminophen and N-desethylamodiaquine). […] Aliquots (5 μL) of the diluted supernatants were analyzed by LC–MS/MS.
Next, the reaction mixtures were incubated with a seven-CYP probe substrate cocktail or bupropion for 15 min at 37 °C.
The LC-MS/MS system was comprised of an Agilent 6495 triple quadrupole mass spectrometer coupled with an Agilent 1290 Infinity system (Agilent Technologies, CA, USA). The column and autosampler temperatures were 40 °C and 4 °C, respectively.
The data were processed using Mass Hunter software (Agilent Technologies).
as §1

CYP1A2 = CYP1A2 (Homo sapiens, UniProt P05177); assay: Inhibition of CYP1A2-mediated phenacetin O-deethylase in ultrapooled human liver microsomes (cocktail, LC-MS/MS)
Protocol: The inhibitory potentials (IC50 values) of APINACA and typical CYP inhibitors on CYP 1A2, 2A6, 2C8, 2C9, 2C19, 2D6, and 3A4 activities in pooled human liver microsomes were evaluated following our previous method using a cocktail of CYP substrates, followed by LC–MS/MS [43]. […] After 3 min of preincubation at 37 °C, the reaction mixtures were incubated for 15 min at 37 °C with the addition of NADPH in a shaking water bath. The reaction was stopped by adding 100 μL of ice cold methanol containing internal standards (d9-1′-hydroxybufuralol for 1′-hydroxybufuralol, 4′-hydroxydiclofenac, 7-hydroxycoumarin, 1′-hydroxymidazolam, and 4′-hydroxymephenytoin; ^13C2, ^15N-acetaminophen for acetaminophen and N-desethylamodiaquine). The incubation mixtures were centrifuged at 13,000× g for 8 min at 4 °C, and 50 μL of each supernatant was diluted with 50 μL of water. Aliquots (5 μL) of the diluted supernatants were analyzed by LC–MS/MS. All assays were performed in triplicate, and the average values were used for subsequent calculations.
To measure the time-dependent inhibition, human liver microsomes were preincubated with the various concentrations of APINACA (final concentrations of 0.1−100 μM) and NADPH for 30 min at 37 °C. Next, the reaction mixtures were incubated with a seven-CYP probe substrate cocktail or bupropion for 15 min at 37 °C. […]

Chain of CYP2C9 (P11712 whole entry): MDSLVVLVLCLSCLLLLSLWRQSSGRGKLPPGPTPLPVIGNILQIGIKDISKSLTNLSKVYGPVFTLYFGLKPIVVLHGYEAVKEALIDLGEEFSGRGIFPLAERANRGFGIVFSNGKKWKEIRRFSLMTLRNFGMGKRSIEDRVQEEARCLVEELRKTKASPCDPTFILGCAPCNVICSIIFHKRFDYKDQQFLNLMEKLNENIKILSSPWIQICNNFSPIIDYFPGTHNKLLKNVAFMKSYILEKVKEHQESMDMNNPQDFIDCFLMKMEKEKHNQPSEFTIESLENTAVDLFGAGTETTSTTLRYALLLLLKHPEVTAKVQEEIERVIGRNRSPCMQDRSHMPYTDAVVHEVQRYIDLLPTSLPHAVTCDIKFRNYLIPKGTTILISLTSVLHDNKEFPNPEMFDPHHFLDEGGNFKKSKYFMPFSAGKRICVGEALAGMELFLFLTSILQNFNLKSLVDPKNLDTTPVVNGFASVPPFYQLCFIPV
Chain of CYP1A2 (P05177 whole entry): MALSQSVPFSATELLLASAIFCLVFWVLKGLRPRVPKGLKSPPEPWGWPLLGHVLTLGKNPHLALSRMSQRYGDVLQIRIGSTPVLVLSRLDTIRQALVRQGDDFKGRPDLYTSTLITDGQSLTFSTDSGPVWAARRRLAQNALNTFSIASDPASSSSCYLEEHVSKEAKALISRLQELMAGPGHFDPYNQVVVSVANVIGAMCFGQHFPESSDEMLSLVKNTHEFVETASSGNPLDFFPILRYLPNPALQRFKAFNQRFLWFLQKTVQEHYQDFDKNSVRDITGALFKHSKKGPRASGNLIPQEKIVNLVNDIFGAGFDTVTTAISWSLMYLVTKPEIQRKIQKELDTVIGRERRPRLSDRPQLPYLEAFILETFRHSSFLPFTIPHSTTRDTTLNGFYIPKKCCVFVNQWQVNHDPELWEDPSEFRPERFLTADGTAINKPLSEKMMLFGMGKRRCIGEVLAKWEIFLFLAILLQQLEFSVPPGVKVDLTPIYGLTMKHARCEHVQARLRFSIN

Work on `CCCCCn1nc(C(=O)NC23CC4CC(CC(C4)C2)C3)c2ccccc21` [APINACA, N-(1-adamantyl)-1-pentyl-1H-indazole-3-carboxamide] yielded an IC50 (UGT1A1) of over 100 µM, an IC50 (UGT1A1; read-out: IC50 UGT1A1 SN-38 glucuronidation, with 30-min preincubation, pooled human liver microsomes, 30-min preincubation with UDPGA (○)) of over 100 µM and an IC50 (UGT1A9; with 30-min preincubation, 30-min preincubation with UDPGA (○)) of 30.7 µM. For the same molecule, the IC50 (UGT1A9; without preincubation, 0.2 µM mycophenolic acid) was 32.7 µM, the IC50 (CYP2C9; IC50 (μM) No Preincubation, 10 μM diclofenac, no preincubation) was over 100 µM and the IC50 (CYP2C9; IC50 (μM) With Preincubation, 30-min preincubation with NADPH) was 85 µM. The IC50 at 15 min (CYP2C9; human, microsomes, pH 7.4, IC50 (μM) With Preincubation, 30-min preincubation with NADPH) was over 100 µM, the IC50 (CYP1A2) was over 100 µM and the IC50 (CYP1A2; read-out: IC50 (μM) With Preincubation, CYP1A2 phenacetin O-deethylase, ultrapooled human liver microsomes, 30-min preincubation with NADPH) was over 100 µM.
